According to patent US20210380547A1, “UREA DERIVATIVES FOR TREATING AND/OR PREVENTING CANCER” (CENTRE NATIONAL DE LA RECHERCHE SCIENTIFIQUE, priority 2018, published 2021):

Key:
[1] = test system: MDA-MB-231; experiment: XTT cell viability assay, MDA-MB-231; assay type: cell-based; details: Homo sapiens, XTT assay (48 h), standard deviation of 10%, read-out: EC50 (μM) Breast MDA-MB-231
Protocol: (§1) Fifty microliters of sodium 3′-[1-phenylaminocarbonyl)-3,4-tetrazolium]-bis(4-methoxy-6-nitro) benzene sulfonic acid hydrate (XTT) reagent was added to each well. The assay is based on the cleavage of the yellow tetrazolium salt XTT to form an orange formazan dye by metabolically active cells. The absorbance of the formazan product, reflecting cell viability, was measured at 490 nm. Each assay was performed in quadruplicate.
(§2) Compounds #1-#14 have been assayed as potential anti-proliferative agents against a panel of human breast head and neck, and kidney tumor cells and hematological malignancies, selected on the basis of their aggressiveness (e.g. incurable triple-negative breast cancer cells: MDA-MB-231; kidney ccRCC cells: RCC4, A498 and 786-O and 786R; head and neck cancer cells: CAL33, CAL33RR, CAL27, and CAL27RR; acute myeloid cell lines: OCI-AML2, OCI-AML3, MolM13, and MolM14; myelodysplastic cell line: SM1; and chronic myeloid cell line: CML). All these cell lines share as common denominator the expression of CXCR1 and CXCR2. The EC50 values have been measured by a XTT colorimetric assay, and compared to those of SB-225002, used as a reference; the results are listed in Table 1.

[2] = test system: A498; experiment: XTT cell viability assay, A498; assay type: cell-based, human; details: Homo sapiens, A498; XTT assay (48 h); standard deviation of 10%; read-out: EC50 (μM) Kidney A498
Protocol: as §1, §2

[3] = test system: RCC4; experiment: XTT cell viability assay, RCC4; assay type: cell-based; details: Homo sapiens, XTT assay (48 h), standard deviation of 10%, read-out: EC50 (μM) Kidney RCC4
Protocol: as §1, §2

[4] = test system: 786-O; experiment: XTT cell viability assay, 786-O; assay type: cell-based, human; details: Homo sapiens, 786-0; XTT assay (48 h); standard deviation of 10%; read-out: EC50 (μM) Kidney 786-O
Protocol: (§3) A, B: Naive (786-O, A), and sunitinib-resistant (786-R, B) 786-O cells, were treated with compound #1 or sunitinib (1 to 10 μM) for 48 hr. Cell viability was measured by XTT assays;
(§4) D, E: 786-O (D), 786-R (E), were treated with 2.5 μM compound #1 or 2.5 μM sunitinib for 24 h to 96 h. The cells metabolism was measured by XTT assay;
as §1, §2

[5] = test system: 786R; experiment: XTT cell viability assay, 786R (sunitinib-resistant); assay type: cell-based, human; details: Homo sapiens, 48 h, XTT assay (48 h); sunitinib-resistant; standard deviation of 10%; read-out: EC50 (μM) Kidney 786R
Protocol: as §3, §4, §1, §2

[6] = test system: OCI-AML2; experiment: XTT cell viability assay, OCI-AML2; assay type: cell-based, human; details: Homo sapiens, OCI-AML2; XTT assay (48 h); standard deviation of 10%; read-out: EC50 (μM) AML OCI-AML2
Protocol: as §1, §2

[7] = test system: OCI-AML3; experiment: XTT cell viability assay, OCI-AML3; assay type: cell-based, human; details: Homo sapiens, OCI-AML-3; XTT assay (48 h); standard deviation of 10%
Protocol: as §1, §2

[8] = test system: MolM13; experiment: XTT cell viability assay, MolM13; assay type: cell-based, human; details: Homo sapiens, MOLM-13; XTT assay (48 h); standard deviation of 10%; read-out: EC50 (μM) AML MolM13
Protocol: as §1, §2

[9] = test system: MolM14; experiment: XTT cell viability assay, MolM14; assay type: cell-based, human; details: Homo sapiens, MOLM-14; XTT assay (48 h); standard deviation of 10%; read-out: EC50 (μM) AML MolM14
Protocol: as §1, §2

[10] = test system: SKM1; experiment: XTT cell viability assay, SKM1; assay type: cell-based, human; details: Homo sapiens, SKM-1; XTT assay (48 h); standard deviation of 10%; read-out: EC50 (μM) MDS SKM1
Protocol: as §1, §2

[11] = test system: K562; experiment: XTT cell viability assay, K562; assay type: cell-based, human; details: Homo sapiens, K562; XTT assay (48 h); standard deviation of 10%; read-out: EC50 (μM) CML K562
Protocol: as §1, §2

[12] = test system: malignant (ccRCC and hematological) cells; experiment: FACS analysis of cell death markers (AV, PI), malignant cells; assay type: cell-based, human; details: 5 μM, 48 h
Protocol: (§5) FIG. 1: Observation by FACS analyses of early (Annexin AV) and late (Propidium Iodide, PI) apoptosis markers expressed by healthy and malignant cells after treatment with compounds #1 and #2 at 5 μM. CT: negative control.
(§6) Apoptosis analysis: After stimulation, cells were washed with ice-cold PBS and were stained with the annexin-V-fluos staining kit (Roche, Meylan, France) according to the manufacturer's procedure. Fluorescence was measured by using the FL2 (AV) and FL3 (propidium iodide, PI) channels of a fluorescence-activated cell sorter apparatus (Calibur cytometer).
(§7) To complete these XTT assays, malignant (ccRCC and hematological) and healthy (human fibroblasts FHN) cells have been grown with compounds #1 or #2, and after 48h the expression of cell death markers (AV and PI) has been quantified by FACS analyses (FIG. 1).

[13] = test system: healthy human fibroblasts (FHN); experiment: FACS analysis of cell death markers (AV, PI), healthy fibroblasts; assay type: cell-based; details: 5 μM, 48 h
Protocol: as §5, §6, §7

[14] = test system: macular degeneration model; experiment: Macular degeneration model, clinical angiography; assay type: in vivo, mice; details: Day 14, intraperitoneal 400 μg 3 times a week
Protocol: FIG. 9: Evaluation of compounds #1 and #3 on macular degeneration. Clinical angiography at Day 14: Evaluation of the intensity of the lesion by a score from 0 to 3 (0: no leak; 1: light intensity; 2: moderate intensity; 3: immense marking) on mice treated with compounds #1 and #3. The intensities of the lesions were reported, each point corresponding to a lesion. Three lesions were performed on the eyes of each mouse; […]. • 4 groups of 12 mice were induced on the eyes by laser burnt as follows: • G1: vehicle; • G2 and G3: Compounds #1 and #3: intraperitoneal injection of 400 μg of product 3 times a week; and • G4: dexamethasone (2 mg/kg/day) orally. Clinical angiography at Day 14 on the 12 animals: evaluation of the intensity of the lesion by a score of 0 to 3 (0 no leak, 1=light intensity, 2=moderate intensity, 3=intense marking).

[15] = test system: CXCL7-dependent HuVEC migration; experiment: Boyden chamber migration assay, CXCL7-dependent; assay type: cell-based; details: CXCL7 (50 ng/ml)
Protocol: CXCL7 or VEGFA-stimulated chemotaxis assays were monitored using modified Boyden chambers containing polycarbonate membranes (8-μm pores, Transwell; Corning, Sigma). Cells were seeded on the upper side of the filters and chambers were placed on 24-well plates containing CXCL7 (50 ng/ml) or VEGFA (50 ng/ml). Cells were allowed to migrate for 24 hr at 37° C. in 5% CO2. Migratory cells on the lower membrane surface were fixed in 3% paraformaldehyde, stained with 0.1% crystal violet.

| Compound | EC50 [1] [µM] | EC50 [2] [µM] | EC50 [3] [µM] | EC50 [4] [µM] | EC50 [5] [µM] | EC50 [6] [µM] | EC50 [7] [µM] | EC50 [8] [µM] | EC50 [9] [µM] | EC50 [10] [µM] | EC50 [11] [µM] | early (AV) and late (PI) apoptosis markers on malignant cells [12] | apoptosis of healthy human fibroblasts (FHN) [13] | intensity of the lesion (score 0 to 3), clinical angiography [14] | reduction of HuVEC CXCL7-dependent motility (comparison) [15] |
| --- | --- | --- | --- | --- | --- | --- | --- | --- | --- | --- | --- | --- | --- | --- | --- |
| O=C(Nc1nc2ccc([N+](=O)[O-])cc2s1)Nc1ccccc1Cl [Compound #2, 1-(2-chlorophenyl)-3-(6-nitrobenzo[d]thiazol-2-yl)urea] | 8 | 5 | 7 | 5 | 8 | 10 | 10 | 5 | 10 | 10 | 7 | cytotoxic effect on malignant cells | no increased apoptosis over the control experiment |  |  |
| CCOc1ccc2nc(NC(=O)Nc3ccccc3C)sc2c1 [Compound #3, 1-(6-ethoxybenzo[d]thiazol-2-yl)-3-(o-tolyl)urea] | 12 | 15 | > 25 | 15 |  | 15 | 7 | 15 | 10 | 15 | 4 |  |  | significant effect |  |
| Cc1c(F)cccc1NC(=O)Nc1ccc(Cl)c(S(=O)(=O)[C@H]2CCCNC2)c1O [danirixin, reference compound] |  |  |  |  |  |  |  |  |  |  |  |  |  |  | less efficient than compound #1 |
